In general, inhibition refers to how much of the control response was suppressed. Lower therefore signals a response near the control.

For the first assay, the system named is cholesterol absorption from the intestine. The assay can be described thus: In Vivo Assay of Hypolipidemic Agents using the Rat Cholesterol Absorption Model. Also on record: species or system Female Sprague-Dawley rats. The settings on record: po, Table 1, perorally, 1 mg/kg, 3H levels in serum three hours after 3H-cholesterol, versus vehicle only control. How it is done:
In Vivo Assay of Hypolipidemic Agents using the Rat Cholesterol Absorption Model. This model is based on models described by Burnett et al (2002), Bioorg. Med. Chem. Lett. 2002 Feb 11;12(3):315-8 and J. Lipid Res. 1999 Oct;40(10):1747-57. Female Sprague-Dawley rats weighing 150-250g are separated into […] and fasted overnight. The animals (4-6/group) are dosed perorally with 300µL test compounds in olive oil or suitable vehicle. Thirty minutes later, 3-5 microCuries ^3H-cholesterol per rat are delivered perorally in 300 µL olive oil. After three hours, 200 µL serum is collected, vortexed with scintillation fluid, and measured for radioactivity in a scintillation counter. Percent inhibition is defined as 100*(1-Ctest/Cctrl), where Ctest and Cctrl refer to ^3H levels in serum for the test compound and for the vehicle only control, respectively. Percent inhibition values are reported for a fixed dose. The ED50 is the dose at which the half-maximal effect on serum ^3H levels is observed for a given test compound.
Representative compounds of the invention were tested in the Rat Cholesterol Absorption model above.
`O=C1[C@H](CC[C@H](O)c2ccc(F)cc2)[C@@H](c2ccc(-c3cccc(P(=O)(O)O)c3)cc2)N1c1ccccc1` [Example 56, (4'-{(2S,3R)-3-[(3S)-3-(4-Fluorophenyl)-3-hydroxypropyl]-4-oxo-1-phenylazetidin-2-yl}biphenyl-3-yl)phosphonic acid] came in with an inhibition at 1 mg/kg of 59%. Turning to `O=C1[C@H](CC[C@H](O)c2ccc(F)cc2)[C@@H](c2ccc(-c3cccc(OC[C@H]4OC(O)[C@H](O)[C@@H](O)[C@@H]4O)c3)cc2)N1c1ccc(F)cc1` (stereo partly drawn) [Example 76, 6-O-(4'-{(2S,3R)-1-(4-Fluorophenyl)-3-[(3S)-3-(4-fluorophenyl)-3-hydroxypropyl]-4-oxoazetidin-2-yl}biphenyl-3-yl)-D-glucopyranose], at 1 mg/kg the inhibition was 56%. The same measure, in the same setting: next, `CO[C@H]1O[C@H](COc2cccc(-c3ccc([C@@H]4[C@@H](CC[C@H](O)c5ccc(F)cc5)C(=O)N4c4ccc(F)cc4)cc3)c2)[C@@H](O)[C@H](O)[C@H]1O` [Example 77, methyl 6-O-(4'-{(2S,3R)-1-(4-fluorophenyl)-3-[(3S)-3-(4-fluorophenyl)-3-hydroxypropyl]-4-oxoazetidin-2-yl}biphenyl-3-yl)-α-D-glucopyranoside]: 70%; `O=C1[C@H](CC[C@H](O)c2ccc(F)cc2)[C@@H](c2ccc(-c3cccc(OC[C@@H](O)[C@@H](O)[C@H](O)[C@@H](O)CO)c3)cc2)N1c1ccc(F)cc1` [Example 78, 6-O-(4'-{(2S,3R)-1-(4-Fluorophenyl)-3-[(3S)-3-(4-fluorophenyl)-3-hydroxypropyl]-4-oxoazetidin-2-yl}biphenyl-3-yl)-D-glucitol]: 51%. On the same count and under the same terms, next, `COc1ccc(-c2ccc([C@@H]3[C@@H](CC[C@H](O)c4ccc(F)cc4)C(=O)N3c3ccc(F)cc3)cc2)cc1OC` [Example 81, (3R,4S)-4-(3',4'-dimethoxybiphenyl-4-yl)-1-(4-fluorophenyl)-3-[(3 S)-3-(4-fluorophenyl)-3-hydroxypropyl]azetidin-2-one]: 17%. `CSc1cccc(-c2ccc([C@@H]3[C@@H](CC[C@H](O)c4ccc(F)cc4)C(=O)N3c3ccc(F)cc3)cc2)c1` [Example 82, (3R,4S)-1-(4-fluorophenyl)-3-[(3S)-3-(4-fluorophenyl)-3-hydroxypropyl]-4-[3'-(methylthio)biphenyl-4-yl]azetidin-2-one] showed an inhibition at 1 mg/kg of 28%.

For the compound `CN(C)c1cccc(-c2ccc([C@@H]3[C@@H](CC[C@H](O)c4ccc(F)cc4)C(=O)N3c3ccc(F)cc3)cc2)c1` [Example 83, (3R,4S)-4-[3'-(dimethylamino)biphenyl-4-yl]-1-(4-fluorophenyl)-3-[(3 S)-3-(4-fluorophenyl)-3-hydroxypropyl]azetidin-2-one], the inhibition at 1 mg/kg worked out at 38%. Regarding `C=Cc1ccc(-c2ccc([C@@H]3[C@@H](CC[C@H](O)c4ccc(F)cc4)C(=O)N3c3ccc(F)cc3)cc2)cc1` [Example 84, (3R,4S)-1-(4-fluorophenyl)-3-[(3S)-3-(4-fluorophenyl)-3-hydroxypropyl]-4-(4'-vinylbiphenyl-4-yl)azetidin-2-one], at 1 mg/kg the inhibition was 51%.

The assay is the same for the next values; noted with them: po, Table 2, footnote 5, perorally, 0.1 mg/kg.
Compound `O=C1[C@H](CC[C@H](O)c2ccc(F)cc2)[C@@H](c2ccc(-c3cccc([C@@H]4O[C@H](CO)[C@@H](O)[C@H](O)[C@H]4O)c3)cc2O)N1c1ccccc1` [Example 65, (1S)-1,5-anhydro-1-(4'-{(2S,3R)-3-[(3S)-3-(4-fluorophenyl)-3-hydroxypropyl]-4-oxo-1-phenylazetidin-2-yl}-3'-hydroxybiphenyl-3-yl)-D-glucitol] gave an inhibition at 0.1 mg/kg of 60%.

Still in this assay, the particulars now being: po, Table 2, footnote 6, perorally, 0.3 mg/kg.
In turn, `O=C1[C@H](CC[C@H](O)c2ccc(F)cc2)[C@@H](c2ccc(-c3ccc([C@@H]4O[C@H](CO)[C@@H](O)[C@H](O)[C@H]4O)cc3)cc2O)N1c1ccccc1` [Example 66, (1S)-1,5-Anhydro-1-(4'-{(2S,3R)-3-[(3S)-3-(4-fluorophenyl)-3-hydroxypropyl]-4-oxo-1-phenylazetidin-2-yl}-3'-hydroxybiphenyl-4-yl)-D-glucitol] gave an inhibition at 0.3 mg/kg of 71%. The compound `O=C1[C@H](CC[C@H](O)c2ccc(F)cc2)[C@@H](c2ccc(-c3cccc([C@@H](O)[C@H]4OC(O)[C@H](O)[C@@H](O)[C@@H]4O)c3)cc2)N1c1ccccc1` (stereo partly drawn) [Example 72, (6R)-6-C-(4'-{(2S,3R)-3-[(3S)-3-(4-Fluorophenyl)-3-hydroxypropyl]-4-oxo-1-phenylazetidin-2-yl}biphenyl-3-yl)-D-glucopyranose] returned an inhibition at 0.3 mg/kg of 27%.

The same assay, now with this note: po, Table 2, footnote mark 3 (defined only under Table 1: 5 mg/kg), perorally.
The compound `O=C1[C@H](CC[C@H](O)c2ccc(F)cc2)[C@@H](c2ccc(-c3cccc(P(=O)(O)O)c3)cc2O)N1c1ccccc1` [Example 61, (4'-{(2S,3R)-3-[(3S)-3-(4-Fluorophenyl)-3-hydroxypropyl]-4-oxo-1-phenylazetidin-2-yl}-3'-hydroxybiphenyl-3-yl)phosphonic acid] yielded an inhibition at 5 mg/kg of 58%.

Staying with this assay, now noted: po, Table 2, perorally, 1 mg/kg, 3H levels in serum three hours after 3H-cholesterol, versus vehicle only control.
Turning to `O=C1[C@H](CC[C@H](O)c2ccc(F)cc2)[C@@H](c2ccc(-c3cccc(O)c3)cn2)N1c1ccccc1` [Example 49, (3R,4S)-3-[(3S)-3-(4-fluorophenyl)-3-hydroxypropyl]-4-[5-(3-hydroxyphenyl)pyridin-2-yl]-1-phenylazetidin-2-one], the inhibition at 1 mg/kg stood at 30%.

`O=C1[C@H](CC[C@H](O)c2ccc(F)cc2)[C@@H](c2ccc(-c3cccc(O)c3)s2)N1c1ccccc1` [Example 50, (3R,4S)-3-[(3S)-3-(4-Fluorophenyl)-3-hydroxypropyl]-4-[5-(3-hydroxyphenyl)-2-thienyl]-1-phenylazetidin-2-one]: the inhibition at 1 mg/kg came to 27%. For the compound `O=C1[C@H](CC[C@H](O)c2ccc(F)cc2)[C@@H](c2ccc(-c3ccc(O)cc3)s2)N1c1ccccc1` [Example 51, (3R,4S)-3-[(3S)-3-(4-Fluorophenyl)-3-hydroxypropyl]-4-[5-(4-hydroxyphenyl)-2-thienyl]-1-phenylazetidin-2-one], at 1 mg/kg the inhibition was 39%.

As for `O=C1[C@H](CCC(O)c2ccc(F)cc2)[C@@H](c2ccc(-c3cccc(S(=O)(=O)O)c3)cc2O)N1c1ccccc1` (stereo partly drawn) [Example 53, Sodium 4'-{(2S,3R)-3-[(3S/R)-3-(4-fluorophenyl)-3-hydroxypropyl]-4-oxo-1-phenylazetidin-2-yl}-3'-hydroxybiphenyl-3-sulfonate], 1 mg/kg produced 78% inhibition. `O=C1[C@H](CC[C@H](O)c2ccc(F)cc2)[C@@H](c2ccc(-c3cccc(O)c3)cc2)N1c1ccccc1` [Example 57, (3R,4S)-3-[(3S)-3-(4-Fluorophenyl)-3-hydroxypropyl]-4-(3'-hydroxybiphenyl-4-yl)-1-phenylazetidin-2-one] showed an inhibition at 1 mg/kg of 73%.

As to `O=C1[C@H](CC[C@H](O)c2ccc(F)cc2)[C@@H](c2ccc(-c3cccc(B(O)O)c3)cc2)N1c1ccccc1` [Example 59, (4'-{(2S,3R)-3-[(3S)-3-(4-Fluorophenyl)-3-hydroxypropyl]-4-oxo-1-phenylazetidin-2-yl}biphenyl-3-yl)boronic acid], the inhibition at 1 mg/kg was 70%. Consider `O=C1[C@H](CC[C@H](O)c2ccc(F)cc2)[C@@H](c2ccc(-c3cccc([C@@H]4O[C@H](CO)[C@@H](O)[C@H](O)[C@H]4O)c3)cc2)N1c1ccccc1` [Example 64, (1S)-1,5-anhydro-1-(4'-{(2S,3R)-3-[(3S)-3-(4-fluorophenyl)-3-hydroxypropyl]-4-oxo-1-phenylazetidin-2-yl}biphenyl-3-yl)-D-glucitol], for which 1 mg/kg produced 67% inhibition. The same measure, in the same setting: next, `O=C1[C@H](CC[C@H](O)c2ccc(F)cc2)[C@@H](c2ccc(-c3cccc([C@H](O)[C@H]4OC(O)[C@H](O)[C@@H](O)[C@@H]4O)c3)cc2)N1c1ccccc1` (stereo partly drawn) [Example 71, (6S)-6-C-(4'-{(2S,3R)-3-[(3S)-3-(4-Fluorophenyl)-3-hydroxypropyl]-4-oxo-1-phenylazetidin-2-yl}biphenyl-3-yl)-D-glucopyranose]: 65%; `O=C1[C@H](CC[C@H](O)c2ccc(F)cc2)[C@@H](c2ccc(-c3cccc([C@H](O)[C@H]4OC(O)[C@H](O)[C@@H](O)[C@@H]4O)c3)cc2O)N1c1ccccc1` (stereo partly drawn) [Example 73, (6S)-6-C-(4'-{(2S,3R)-3-[(3S)-3-(4-Fluorophenyl)-3-hydroxypropyl]-4-oxo-1-phenylazetidin-2-yl}-3'-hydroxybiphenyl-3-yl)-D-glucopyranose]: 59%; `O=C1[C@H](CC[C@H](O)c2ccc(F)cc2)[C@@H](c2ccc(-c3cccc([C@@H](O)[C@H]4OC(O)[C@H](O)[C@@H](O)[C@@H]4O)c3)cc2O)N1c1ccccc1` (stereo partly drawn) [Example 74, (6R)-6-C-(4'-{(2S,3R)-3-[(3S)-3-(4-Fluorophenyl)-3-hydroxypropyl]-4-oxo-1-phenylazetidin-2-yl}-3'-hydroxybiphenyl-3-yl)-D-glucopyranose]: 67%. For `O=C1[C@H](CC[C@H](O)c2ccc(F)cc2)[C@@H](c2ccc(-c3cccc([C@H](O)[C@@H](O)[C@@H](O)[C@H](O)[C@@H](O)CO)c3)cc2O)N1c1ccccc1` [Example 75, (6S)-6-C-(4'-{(2S,3R)-3-[(3S)-3-(4-Fluorophenyl)-3-hydroxypropyl]-4-oxo-1-phenylazetidin-2-yl}-3'-hydroxybiphenyl-3-yl)-D-glucitol], at 1 mg/kg the inhibition was 68%.
